This passage reports normalised inhibition (eCFP-eYFP dual reporter) results from the OligoGym collection.

Oligonucleotides are given in HELM: sugar(base)linkage, 5' to 3'; d 2'-deoxyribose, r ribose, m 2'-O-methylribose, p phosphate. ss, as = sense and antisense strand
Also: test concentration or dose not given here.

For this data set, the target named is Mmp7 (rat). The data set is described as follows: reporter assay of Huesken 2005. The conditions noted are these: siRNA.
Consider “RNA1{r(G)p.r(A)p.r(U)p.r(G)p.r(A)p.r(G)p.r(U)p.r(A)p.r(C)p.r(U)p.r(G)p.r(G)p.r(A)p.r(C)p.r(G)p.r(G)p.r(A)p.r(U)p.r(G)p.d(T)p.d(T)}|RNA2{r(C)p.r(A)p.r(U)p.r(C)p.r(C)p.r(G)p.r(U)p.r(C)p.r(C)p.r(A)p.r(G)p.r(U)p.r(A)p.r(C)p.r(U)p.r(C)p.r(A)p.r(U)p.r(C)p.d(C)p.d(T)}$$$RNA1{StrandType:ss}|RNA2{StrandType:as}$”, for which the normalised inhibition (eCFP-eYFP dual reporter) was determined as 87.4%.

With “RNA1{r(C)p.r(C)p.r(G)p.r(G)p.r(A)p.r(G)p.r(A)p.r(A)p.r(G)p.r(U)p.r(G)p.r(A)p.r(C)p.r(C)p.r(G)p.r(C)p.r(A)p.r(C)p.r(U)p.d(T)p.d(T)}|RNA2{r(A)p.r(G)p.r(U)p.r(G)p.r(C)p.r(G)p.r(G)p.r(U)p.r(C)p.r(A)p.r(C)p.r(U)p.r(U)p.r(C)p.r(U)p.r(C)p.r(C)p.r(G)p.r(G)p.d(C)p.d(T)}$$$RNA1{StrandType:ss}|RNA2{StrandType:as}$”, the normalised inhibition (eCFP-eYFP dual reporter) was 94.4%.

Turning to “RNA1{r(A)p.r(C)p.r(U)p.r(G)p.r(G)p.r(A)p.r(C)p.r(G)p.r(G)p.r(A)p.r(U)p.r(G)p.r(G)p.r(U)p.r(G)p.r(A)p.r(G)p.r(G)p.r(A)p.d(T)p.d(T)}|RNA2{r(U)p.r(C)p.r(C)p.r(U)p.r(C)p.r(A)p.r(C)p.r(C)p.r(A)p.r(U)p.r(C)p.r(C)p.r(G)p.r(U)p.r(C)p.r(C)p.r(A)p.r(G)p.r(U)p.d(A)p.d(C)}$$$RNA1{StrandType:ss}|RNA2{StrandType:as}$”, the normalised inhibition (eCFP-eYFP dual reporter) is 46.5%.

“RNA1{r(C)p.r(U)p.r(G)p.r(G)p.r(G)p.r(U)p.r(C)p.r(U)p.r(G)p.r(G)p.r(G)p.r(U)p.r(C)p.r(A)p.r(C)p.r(U)p.r(C)p.r(U)p.r(U)p.d(T)p.d(T)}|RNA2{r(A)p.r(A)p.r(G)p.r(A)p.r(G)p.r(U)p.r(G)p.r(A)p.r(C)p.r(C)p.r(C)p.r(A)p.r(G)p.r(A)p.r(C)p.r(C)p.r(C)p.r(A)p.r(G)p.d(A)p.d(G)}$$$RNA1{StrandType:ss}|RNA2{StrandType:as}$”: the normalised inhibition (eCFP-eYFP dual reporter) was 87.6%.

Turning to “RNA1{r(G)p.r(G)p.r(A)p.r(A)p.r(C)p.r(A)p.r(G)p.r(G)p.r(C)p.r(G)p.r(C)p.r(A)p.r(G)p.r(A)p.r(A)p.r(U)p.r(U)p.r(A)p.r(U)p.d(T)p.d(T)}|RNA2{r(A)p.r(U)p.r(A)p.r(A)p.r(U)p.r(U)p.r(C)p.r(U)p.r(G)p.r(C)p.r(G)p.r(C)p.r(C)p.r(U)p.r(G)p.r(U)p.r(U)p.r(C)p.r(C)p.d(C)p.d(A)}$$$RNA1{StrandType:ss}|RNA2{StrandType:as}$”, the normalised inhibition (eCFP-eYFP dual reporter) worked out at 104%.

Turning to “RNA1{r(A)p.r(A)p.r(A)p.r(A)p.r(C)p.r(A)p.r(A)p.r(A)p.r(G)p.r(A)p.r(A)p.r(G)p.r(G)p.r(C)p.r(C)p.r(A)p.r(C)p.r(C)p.r(A)p.d(T)p.d(T)}|RNA2{r(U)p.r(G)p.r(G)p.r(U)p.r(G)p.r(G)p.r(C)p.r(C)p.r(U)p.r(U)p.r(C)p.r(U)p.r(U)p.r(U)p.r(G)p.r(U)p.r(U)p.r(U)p.r(U)p.d(A)p.d(G)}$$$RNA1{StrandType:ss}|RNA2{StrandType:as}$”, the normalised inhibition (eCFP-eYFP dual reporter) came out at 45.7%.

For “RNA1{r(A)p.r(G)p.r(U)p.r(G)p.r(C)p.r(A)p.r(G)p.r(U)p.r(G)p.r(G)p.r(A)p.r(C)p.r(A)p.r(A)p.r(A)p.r(C)p.r(U)p.r(G)p.r(A)p.d(T)p.d(T)}|RNA2{r(U)p.r(C)p.r(A)p.r(G)p.r(U)p.r(U)p.r(U)p.r(G)p.r(U)p.r(C)p.r(C)p.r(A)p.r(C)p.r(U)p.r(G)p.r(C)p.r(A)p.r(C)p.r(U)p.d(G)p.d(G)}$$$RNA1{StrandType:ss}|RNA2{StrandType:as}$”, the normalised inhibition (eCFP-eYFP dual reporter) amounted to 110%.

Consider “RNA1{r(G)p.r(G)p.r(A)p.r(C)p.r(U)p.r(C)p.r(A)p.r(G)p.r(G)p.r(C)p.r(G)p.r(U)p.r(G)p.r(A)p.r(A)p.r(C)p.r(U)p.r(U)p.r(C)p.d(T)p.d(T)}|RNA2{r(G)p.r(A)p.r(A)p.r(G)p.r(U)p.r(U)p.r(C)p.r(A)p.r(C)p.r(G)p.r(C)p.r(C)p.r(U)p.r(G)p.r(A)p.r(G)p.r(U)p.r(C)p.r(C)p.d(T)p.d(C)}$$$RNA1{StrandType:ss}|RNA2{StrandType:as}$”, for which the normalised inhibition (eCFP-eYFP dual reporter) is 70.4%.

In the case of “RNA1{r(C)p.r(A)p.r(A)p.r(A)p.r(C)p.r(A)p.r(G)p.r(U)p.r(C)p.r(C)p.r(U)p.r(A)p.r(A)p.r(G)p.r(U)p.r(G)p.r(G)p.r(C)p.r(A)p.d(T)p.d(T)}|RNA2{r(U)p.r(G)p.r(C)p.r(C)p.r(A)p.r(C)p.r(U)p.r(U)p.r(A)p.r(G)p.r(G)p.r(A)p.r(C)p.r(U)p.r(G)p.r(U)p.r(U)p.r(U)p.r(G)p.d(G)p.d(C)}$$$RNA1{StrandType:ss}|RNA2{StrandType:as}$”, the normalised inhibition (eCFP-eYFP dual reporter) is 81.2%.

Regarding “RNA1{r(C)p.r(U)p.r(C)p.r(U)p.r(C)p.r(U)p.r(G)p.r(G)p.r(G)p.r(U)p.r(C)p.r(U)p.r(G)p.r(G)p.r(G)p.r(U)p.r(C)p.r(A)p.r(C)p.d(T)p.d(T)}|RNA2{r(G)p.r(U)p.r(G)p.r(A)p.r(C)p.r(C)p.r(C)p.r(A)p.r(G)p.r(A)p.r(C)p.r(C)p.r(C)p.r(A)p.r(G)p.r(A)p.r(G)p.r(A)p.r(G)p.d(T)p.d(G)}$$$RNA1{StrandType:ss}|RNA2{StrandType:as}$”, the normalised inhibition (eCFP-eYFP dual reporter) was 73.1%.

For the substance “RNA1{r(A)p.r(C)p.r(U)p.r(C)p.r(A)p.r(G)p.r(G)p.r(C)p.r(G)p.r(U)p.r(G)p.r(A)p.r(A)p.r(C)p.r(U)p.r(U)p.r(C)p.r(C)p.r(U)p.d(T)p.d(T)}|RNA2{r(A)p.r(G)p.r(G)p.r(A)p.r(A)p.r(G)p.r(U)p.r(U)p.r(C)p.r(A)p.r(C)p.r(G)p.r(C)p.r(C)p.r(U)p.r(G)p.r(A)p.r(G)p.r(U)p.d(C)p.d(C)}$$$RNA1{StrandType:ss}|RNA2{StrandType:as}$”, the normalised inhibition (eCFP-eYFP dual reporter) is 73.1%.

As for “RNA1{r(G)p.r(C)p.r(C)p.r(U)p.r(U)p.r(U)p.r(G)p.r(C)p.r(A)p.r(C)p.r(C)p.r(G)p.r(G)p.r(G)p.r(G)p.r(C)p.r(C)p.r(A)p.r(G)p.d(T)p.d(T)}|RNA2{r(C)p.r(U)p.r(G)p.r(G)p.r(C)p.r(C)p.r(C)p.r(C)p.r(G)p.r(G)p.r(U)p.r(G)p.r(C)p.r(A)p.r(A)p.r(A)p.r(G)p.r(G)p.r(C)p.d(A)p.d(T)}$$$RNA1{StrandType:ss}|RNA2{StrandType:as}$”, the normalised inhibition (eCFP-eYFP dual reporter) was found to be 32.6%.

Regarding “RNA1{r(A)p.r(G)p.r(G)p.r(C)p.r(G)p.r(C)p.r(A)p.r(G)p.r(A)p.r(A)p.r(U)p.r(U)p.r(A)p.r(U)p.r(C)p.r(U)p.r(U)p.r(A)p.r(G)p.d(T)p.d(T)}|RNA2{r(C)p.r(U)p.r(A)p.r(A)p.r(G)p.r(A)p.r(U)p.r(A)p.r(A)p.r(U)p.r(U)p.r(C)p.r(U)p.r(G)p.r(C)p.r(G)p.r(C)p.r(C)p.r(U)p.d(G)p.d(T)}$$$RNA1{StrandType:ss}|RNA2{StrandType:as}$”, the normalised inhibition (eCFP-eYFP dual reporter) turned out to be 66%.

On to “RNA1{r(U)p.r(G)p.r(A)p.r(A)p.r(C)p.r(U)p.r(U)p.r(C)p.r(C)p.r(U)p.r(G)p.r(U)p.r(U)p.r(U)p.r(G)p.r(U)p.r(U)p.r(G)p.r(C)p.d(T)p.d(T)}|RNA2{r(G)p.r(C)p.r(A)p.r(A)p.r(C)p.r(A)p.r(A)p.r(A)p.r(C)p.r(A)p.r(G)p.r(G)p.r(A)p.r(A)p.r(G)p.r(U)p.r(U)p.r(C)p.r(A)p.d(C)p.d(G)}$$$RNA1{StrandType:ss}|RNA2{StrandType:as}$”, for which the normalised inhibition (eCFP-eYFP dual reporter) was determined as 33.7%.

For “RNA1{r(A)p.r(C)p.r(U)p.r(C)p.r(U)p.r(C)p.r(U)p.r(G)p.r(G)p.r(G)p.r(U)p.r(C)p.r(U)p.r(G)p.r(G)p.r(G)p.r(U)p.r(C)p.r(A)p.d(T)p.d(T)}|RNA2{r(U)p.r(G)p.r(A)p.r(C)p.r(C)p.r(C)p.r(A)p.r(G)p.r(A)p.r(C)p.r(C)p.r(C)p.r(A)p.r(G)p.r(A)p.r(G)p.r(A)p.r(G)p.r(U)p.d(G)p.d(G)}$$$RNA1{StrandType:ss}|RNA2{StrandType:as}$”, the normalised inhibition (eCFP-eYFP dual reporter) worked out at 61.8%.

Take “RNA1{r(A)p.r(G)p.r(U)p.r(G)p.r(C)p.r(C)p.r(A)p.r(G)p.r(A)p.r(U)p.r(G)p.r(U)p.r(U)p.r(G)p.r(C)p.r(A)p.r(G)p.r(A)p.r(A)p.d(T)p.d(T)}|RNA2{r(U)p.r(U)p.r(C)p.r(U)p.r(G)p.r(C)p.r(A)p.r(A)p.r(C)p.r(A)p.r(U)p.r(C)p.r(U)p.r(G)p.r(G)p.r(C)p.r(A)p.r(C)p.r(U)p.d(C)p.d(C)}$$$RNA1{StrandType:ss}|RNA2{StrandType:as}$”: the normalised inhibition (eCFP-eYFP dual reporter) was 115%.

As to “RNA1{r(G)p.r(G)p.r(A)p.r(G)p.r(U)p.r(A)p.r(U)p.r(G)p.r(C)p.r(A)p.r(A)p.r(A)p.r(U)p.r(C)p.r(C)p.r(C)p.r(A)p.r(C)p.r(U)p.d(T)p.d(T)}|RNA2{r(A)p.r(G)p.r(U)p.r(G)p.r(G)p.r(G)p.r(A)p.r(U)p.r(U)p.r(U)p.r(G)p.r(C)p.r(A)p.r(U)p.r(A)p.r(C)p.r(U)p.r(C)p.r(C)p.d(A)p.d(C)}$$$RNA1{StrandType:ss}|RNA2{StrandType:as}$”, the normalised inhibition (eCFP-eYFP dual reporter) was found to be 96.7%.

Regarding “RNA1{r(C)p.r(U)p.r(A)p.r(U)p.r(C)p.r(A)p.r(A)p.r(G)p.r(G)p.r(A)p.r(G)p.r(A)p.r(U)p.r(C)p.r(A)p.r(U)p.r(U)p.r(C)p.r(A)p.d(T)p.d(T)}|RNA2{r(U)p.r(G)p.r(A)p.r(A)p.r(U)p.r(G)p.r(A)p.r(U)p.r(C)p.r(U)p.r(C)p.r(C)p.r(U)p.r(U)p.r(G)p.r(A)p.r(U)p.r(A)p.r(G)p.d(G)p.d(T)}$$$RNA1{StrandType:ss}|RNA2{StrandType:as}$”, the normalised inhibition (eCFP-eYFP dual reporter) is 115%.

For the substance “RNA1{r(G)p.r(A)p.r(A)p.r(G)p.r(U)p.r(G)p.r(A)p.r(C)p.r(C)p.r(G)p.r(C)p.r(A)p.r(C)p.r(U)p.r(U)p.r(C)p.r(A)p.r(G)p.r(U)p.d(T)p.d(T)}|RNA2{r(A)p.r(C)p.r(U)p.r(G)p.r(A)p.r(A)p.r(G)p.r(U)p.r(G)p.r(C)p.r(G)p.r(G)p.r(U)p.r(C)p.r(A)p.r(C)p.r(U)p.r(U)p.r(C)p.d(T)p.d(C)}$$$RNA1{StrandType:ss}|RNA2{StrandType:as}$”, the normalised inhibition (eCFP-eYFP dual reporter) turned out to be 40.5%.

On to “RNA1{r(A)p.r(A)p.r(U)p.r(G)p.r(C)p.r(A)p.r(G)p.r(A)p.r(A)p.r(G)p.r(C)p.r(C)p.r(C)p.r(A)p.r(G)p.r(G)p.r(U)p.r(G)p.r(U)p.d(T)p.d(T)}|RNA2{r(A)p.r(C)p.r(A)p.r(C)p.r(C)p.r(U)p.r(G)p.r(G)p.r(G)p.r(C)p.r(U)p.r(U)p.r(C)p.r(U)p.r(G)p.r(C)p.r(A)p.r(U)p.r(U)p.d(A)p.d(T)}$$$RNA1{StrandType:ss}|RNA2{StrandType:as}$”, for which the normalised inhibition (eCFP-eYFP dual reporter) was determined as 86.1%.
